According to patent US20090081197A1 (Palatin Technologies, Inc., priority 2007, published 2009):
Read-outs that look alike come from different tables or passages of the source. Positions of bridges follow the written chain, without caps; N, C: chain ends. Non-standard residues stand in square brackets, D forms with d. Residues, ends and D or L forms follow the SMILES beside them. No end group written: not given here. 2Nal = N[C@@H](Cc1ccc2ccccc2c1)C(=O)O; d2Nal = N[C@H](Cc1ccc2ccccc2c1)C(=O)O; Nle = CCCC[C@H](N)C(=O)O

Legend:
MC4-R [1] = target: T1, MC4-R (Homo sapiens, UniProt P32245); assay: cAMP agonist stimulation, high receptor density system (10 ng/mL doxycycline); conditions: for Efficacy/Intrinsic Activity: 10 ng/mL doxycycline, high receptor density hMC4-R system, NDP-α-MSH maximal cAMP = 1.0
MC4-R [2] = target: T1, MC4-R; assay: cAMP agonist stimulation, low receptor density system (0.1 ng/mL doxycycline); conditions: 0.1 ng/mL doxycycline, low receptor density hMC4-R system; NDP-α-MSH maximal cAMP = 1.0
[3] = functional antagonists known not to cause PE response, cited from earlier work
[4] = Penile erection induction in male rats; type: in vivo; conditions: rat, ICV
How it was run: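 Male Sprague-Dawley rats (200-250 g), groups of 4-8, dosed IV or ICV at various doses and observed individually for penile erections. Only statistically relevant increases over vehicle-control mean PEs count as induction; IV responses below 1.0 PEs/rat treated as equivocal, some retested ICV.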

MC4-R [5] = target: T1, MC4-R; assay: Competitive inhibition assay using [I^125]-NDP-α-MSH, hMC4-R membranes; type: binding; design: host or cells: TREx-293 (HEK-293 stably expressing Tet repressor); conditions: 1 μM test compound; read-out: Inhibition at 1 μM (NDP-α-MSH) In Normal System, MC4-R
How it was run: (§1)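 Tracer was 0.4 nM for MC3-R and MC5-R, 0.2 nM for MC4-R and 0.1 nM for MC1-R. Bound radioactivity was gamma-counted after filtration; values are triplicate means, with results below 0% reported as 0%.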

MC3-R [6] = target: T2, MC3-R (Homo sapiens, UniProt P41968); assay: Competitive inhibition assay using [I^125]-NDP-α-MSH, hMC3-R membranes; type: binding; design: expressed in transfected cells; conditions: 1 μM test compound; read-out: Inhibition at 1 μM (NDP-α-MSH) In Normal System, MC3-R
How it was run: as §1

MC5-R [7] = target: T3, MC5-R (Homo sapiens, UniProt P33032); assay: Competitive inhibition assay using [I^125]-NDP-α-MSH, hMC5-R membranes; type: binding; design: expressed in transfected cells; conditions: 1 μM test compound; read-out: Inhibition at 1 μM (NDP-α-MSH) In Normal System, MC5-R
How it was run: as §1

MC4-R [8] = target: T1, MC4-R; assay: Assay for neutral antagonist, Schild analysis (pA2) against NDP-α-MSH; type: cell-based; design: expressed in transfected cells; host or cells: HEK-293; conditions: Schild analysis vs NDP-α-MSH; read-out: pA2 value as antagonist at MC4-R in a normal system (converted)
Method: Assay for Neutral Antagonist. […] These studies were carried out in HEK-293 cells expressing the MC4-R receptor. Cells were incubated with the compounds in the presence of the agonist NDP-α-MSH and the extent of antagonism was measured by the decrease in the level of intracellular cAMP. Screening the compounds for antagonists was done at a single concentration of NDP-α-MSH (1.0 nM) over a compound concentration range of 0.5-5000 nM.
Experimental details were similar to the analysis for agonistic activity described above. Briefly, cells were pre-incubated for 30 minutes with the test compounds at concentrations between 0.5 nM and 5000 nM. The cells were then stimulated with NDP-α-MSH at a concentration of 1 nM for 1 hour. For Schild analysis, the interactions were studied using at least 3 concentrations of the compounds, separated by a log unit, over a full range of the agonist (0.005-5000 nM). cAMP levels was measured in the cell lysates after appropriate dilution. Nonlinear regression analysis with Prism Graph-Pad software was used for Schild analysis and to obtain EC50 values. pA2 values were derived from the Schild plot of the data.

[9] = ICV food intake and body weight change; type: in vivo; conditions: rat, 1 nmol
How it was run: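 Rats fitted with intracerebroventricular cannulas and fed ad libitum got a single ICV dose of vehicle or compound (1-3 nmol). Food intake and body-weight change over the 24 h after dosing were compared with a 1-week vehicle baseline. Values at 48 h and 72 h were also recorded to follow return to baseline.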

human MC1-R = target: T4, human MC1-R (Homo sapiens, UniProt Q01726); assay: Competitive inhibition assay using [I^125]-NDP-α-MSH, human MC1-R (separate experiments); type: binding; conditions: separate experiments with human MC1-R; read-out: Ki (nM) (NDP-α-MSH) in a normal system, human MC1-R
T4 construct: expressed in transfected cells

MC1-R [10] = target: T5, MC1-R (Mus musculus, UniProt Q01727); assay: Competitive inhibition assay using [I^125]-NDP-α-MSH, B-16 mouse melanoma cell membranes; type: binding; conditions: for inhibition at 1 µM: 1 μM test compound, read-out: Inhibition at 1 μM (NDP-α-MSH) In Normal System, MC1-R
T5 construct: B-16 mouse melanoma cells (containing MC1-R); endogenous in cells
How it was run: as §1

MC4-R [11] = target: T1, MC4-R; assay: cAMP functional activity assay in HEK-293 cells, normal system; type: cell-based; design: expressed in transfected cells; host or cells: HEK-293
[12] = IP (and IN) food intake, mice; type: in vivo; conditions: mouse, IP, 4 hours
How it was run: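 Male Sprague-Dawley rats dosed IV (0.5-3, up to 10 mg/kg) or IP (0.5-10, up to 50 mg/kg); male C57BL/6 mice dosed IP. Change in food intake and body weight over 24 h post-dose versus 1-week vehicle baseline, with 48 and 72 h reversal checks.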

[13] = IV and IP food intake and body weight change, rats; type: in vivo; conditions: rat, 10 mg/kg, 24 hours
Method: IV and IP food intake and body weight change. Change in food intake and body weight was evaluated for selected compounds. Male Sprague-Dawley rats or male C57BL/6 mice were utilized. Animals were individually housed in conventional plexiglass hanging cages and maintained on a controlled 12 hour on/off light cycle. Water and powdered (LabDiet, 5P00 Prolab RMH 3000) or pelleted (Harlan Teklad 2018 18% Protein Rodent Diet) food was provided ad libitum. For 1 week before treatment, 24-hour food intake and body weight change was recorded to assess a baseline for the group during vehicle treatment. The rats were dosed IV with vehicle or selected compounds (0.5-3 mg/kg, and in some cases up to 10 mg/Kg) or dosed intraperitoneally (IP) with vehicle or selected compounds (0.5-10 mg/kg, and in some cases up to 50 mg/kg). Mice were dosed IP. The changes in body weight and food intake for the 24 hour period after dosing were determined. The changes in body weight and food intake for the 48 hour and 72 hour periods after dosing were also measured to determined reversal of changes in body weight and food intake effects back to baseline levels.

MC5-R [14] = target: T3, MC5-R; assay: cAMP functional activity assay in HEK-293 cells; type: cell-based; design: expressed in transfected cells; host or cells: HEK-293; conditions: 1 μM concentration where stated
MC3-R [15] = target: T2, MC3-R; assay: cAMP functional activity assay in HEK-293 cells; type: cell-based; design: expressed in transfected cells; host or cells: HEK-293; conditions: 1 μM concentration where stated
MC1-R [16] = target: T5, MC1-R; assay: cAMP functional activity assay in B-16 mouse melanoma cells; type: cell-based; conditions: 1 μM concentration where stated
[17] = normal system, 1 μM concentration where stated

T3 sequence (P33032 whole entry): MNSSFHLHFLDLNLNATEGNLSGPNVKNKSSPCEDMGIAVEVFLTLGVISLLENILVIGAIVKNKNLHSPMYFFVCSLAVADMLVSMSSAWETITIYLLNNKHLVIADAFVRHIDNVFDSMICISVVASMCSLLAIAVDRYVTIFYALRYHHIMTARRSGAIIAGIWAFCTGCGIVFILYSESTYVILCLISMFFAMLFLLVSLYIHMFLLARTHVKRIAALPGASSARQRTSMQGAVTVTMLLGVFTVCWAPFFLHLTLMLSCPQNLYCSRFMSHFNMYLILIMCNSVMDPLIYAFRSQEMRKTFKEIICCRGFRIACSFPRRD
T2 sequence (P41968 whole entry): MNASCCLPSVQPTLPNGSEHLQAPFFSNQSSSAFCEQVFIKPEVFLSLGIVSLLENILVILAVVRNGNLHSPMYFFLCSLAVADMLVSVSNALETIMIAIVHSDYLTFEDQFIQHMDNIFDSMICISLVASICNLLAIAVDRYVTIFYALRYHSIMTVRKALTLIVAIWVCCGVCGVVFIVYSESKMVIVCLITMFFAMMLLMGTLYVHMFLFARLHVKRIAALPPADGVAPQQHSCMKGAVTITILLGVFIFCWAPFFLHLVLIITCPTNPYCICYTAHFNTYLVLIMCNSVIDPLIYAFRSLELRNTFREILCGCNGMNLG
T1 sequence (P32245 whole entry): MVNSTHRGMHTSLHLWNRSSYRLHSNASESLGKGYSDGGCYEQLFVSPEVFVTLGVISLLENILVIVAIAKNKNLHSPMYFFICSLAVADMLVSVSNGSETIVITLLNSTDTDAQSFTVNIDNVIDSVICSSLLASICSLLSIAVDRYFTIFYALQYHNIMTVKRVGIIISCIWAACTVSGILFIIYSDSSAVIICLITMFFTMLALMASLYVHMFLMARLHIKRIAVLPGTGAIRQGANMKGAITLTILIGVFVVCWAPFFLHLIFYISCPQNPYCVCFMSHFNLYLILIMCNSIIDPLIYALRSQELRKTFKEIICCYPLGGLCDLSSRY
T5 sequence (Q01727 whole entry): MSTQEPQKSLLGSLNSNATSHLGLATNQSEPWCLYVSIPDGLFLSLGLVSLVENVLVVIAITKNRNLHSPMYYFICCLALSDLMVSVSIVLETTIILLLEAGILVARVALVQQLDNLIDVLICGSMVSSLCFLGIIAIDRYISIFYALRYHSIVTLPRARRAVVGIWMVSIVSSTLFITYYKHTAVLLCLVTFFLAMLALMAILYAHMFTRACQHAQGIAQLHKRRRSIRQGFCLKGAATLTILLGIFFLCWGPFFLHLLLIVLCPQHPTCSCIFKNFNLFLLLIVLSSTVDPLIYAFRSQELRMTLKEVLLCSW
T4 sequence (Q01726 whole entry): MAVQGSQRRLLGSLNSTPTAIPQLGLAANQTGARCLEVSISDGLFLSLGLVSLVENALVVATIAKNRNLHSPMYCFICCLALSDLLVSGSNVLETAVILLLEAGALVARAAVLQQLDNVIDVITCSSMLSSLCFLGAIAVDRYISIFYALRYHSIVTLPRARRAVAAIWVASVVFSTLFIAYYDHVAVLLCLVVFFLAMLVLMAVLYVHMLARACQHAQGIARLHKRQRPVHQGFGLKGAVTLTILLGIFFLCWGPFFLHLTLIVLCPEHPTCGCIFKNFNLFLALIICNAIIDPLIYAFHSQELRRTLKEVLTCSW

Compound	Efficacy/Intrinsic Activity (MC4-R [1])	Efficacy/Intrinsic Activity (MC4-R [2])	Penile Erection ICV [3]	Penile Erection IV [3]	inhibition at 1 µM (MC4-R [5])	inhibition at 1 µM (MC3-R [6])	inhibition at 1 µM (MC5-R [7])	Kb (MC4-R [8])	inhibition at 1 µM (MC1-R [10])	functional status at MC5-R in cAMP assay (MC5-R [14])	functional status at MC1-R in cAMP assay (MC1-R [16])	functional status at MC4-R in cAMP assay (MC4-R [11]; [17])	other results
AGRP (83-132): AgRP (83-132); functional antagonist known not to cause PE response (SSRRCVRLHESCLGQQVPCCDPCATCYCRFFNAFCYCRKLGTAMNPCSRT; ends and bridges not checked; cysteine pairing not given here) [reference compound]	None	None	No	No	–	–	–	–	–	–	–	–	–
CCCC[C@H](NC(C)=O)C(=O)N[C@H]1CC(=O)NCCCC[C@@H](C(=O)O)NC(=O)[C@H](Cc2ccc3ccccc3c2)NC(=O)[C@H](CCCNC(=N)N)NC(=O)[C@@H](Cc2ccc3ccccc3c2)NC(=O)[C@H](Cc2c[nH]cn2)NC1=O [Example 34, Ac-Nle-cyclo(Asp-His-D-Nal 2-Arg-Nal 2-Lys)-OH] (Ac-[Nle]DH[d2Nal]R[2Nal]K-OH; lactam 2-7)	None	None	–	–	100%	98%	100%	7.94 nM	102%	–	–	–	Penile Erection ICV [4]: No; PE efficacy ([4]; 3 nanomole): inactive; 24 hour increase in food intake [9]: 12 g; increase in body weight ([9]; 24 hours): 16 g; Ki (human MC1-R): 0.25 nM; functional status at MC4-R in cAMP assay (MC4-R [11]; at 1 nM dose): inactive
C[C@@H]1CN(C(=O)[C@H](N)Cc2ccc(Cl)cc2Cl)[C@@H](CCCNC(=N)N)CN1CCc1ccc2ccccc2c1 [Example 11, N-{3-[1-[2(R)-Amino-3-(2,4-dichloro-phenyl)-propionyl]-5(R)-methyl-4-(2-naphthalen-2-yl-ethyl)-piperazin-2(S)-yl]-propyl}-guanidine]	0.49	None	–	–	99%	72%	65%	15.8 nM	20%	inactive	inactive	antagonist	maximal decrease in food intake ([12]; 3 mg/kg): 10%; maximal decrease in food intake ([12]; 10 mg/kg): 30%; maximal decrease in food intake ([13]; IP): 19%; maximal decrease in food intake ([13]; IV): 87%; EC50 (MC4-R [1]): 61 nM; functional status at MC3-R in cAMP assay (MC3-R [15]): inactive
CC(C)C[C@@H]1CN(C(=O)[C@H](N)Cc2ccc(Cl)cc2Cl)[C@@H](CCCNC(=N)N)CN1CCc1ccc2ccccc2c1 [Example 4, N-{3-[1-[2(R)-Amino-3-(2,4-dichloro-phenyl)-propionyl]-5(R)-isobutyl-4-(2-naphthalen-2-yl-ethyl)-piperazin-2(S)-yl]-propyl}-guanidine]	None	None	–	–	99%	64%	75%	20 nM	21%	partial agonist (intrinsic activity between 0.1 (10%) and 0.7 (70%) is classified as a partial agonist)	no intrinsic activity (intrinsic activity below 0.1 (10%) is classified as inactive or having no intrinsic activity)	no intrinsic activity (intrinsic activity below 0.1 (10%) is classified as inactive or having no intrinsic activity)	inhibition in vivo at 10 mg/kg ([12]; 10 mg/kg, read-out: maximal decrease in food intake): 60%; Ki (MC1-R [10]; read-out: Ki (nM) (NDP-α-MSH) In Normal System, MC1-R): 1360 nM
cyclo 2,7[Ac-Nle-Asp-His-D-Nal 2-Arg-Trp-Lys]-NH2 [SHU-9119]	–	–	No	No	–	–	–	–	–	–	–	–	–
